# According to patent US20150190440A1, “BLOOD PRESSURE REDUCING COMPOSITION FABRICATED BY USING MONASCUS PURPUREUS NTU 568 AND PRIMER FOR THE MONASCUS PURPUREUS NTU 568” (Sunway Biotech Co., LTD, priority 2014, published 2015):
# Columns and labels:
# Type in all cases: in vivo, rat
# [1] = test system: Spontaneous hypertensive rats (SHRs); assay: Kidney function, electrolytes and creatine phosphokinase indexes of SHRs; conditions: M: SHR, amlodipine 0.4 mgkg-1day-1
# Text: (§1) Spontaneous hypertensive rats (SHRs) and Wistar-Kyoto strains of normotensive rats (WKYs) are chosen to be experiment animals, wherein the SHRs would spontaneously suffer from the hypertension when they grow to 5˜6 weeks old. Herein, 8-week old SHRs are used for carrying out the experiments, and these 8-week old SHRs and WKYs are pre-fed with chew diet and water for 5 weeks before starting the experiments. Herein, it needs to further explain that, the experiment groups listed in Table 6 are divided to 9 groups. The rats in the 9 groups are fed with the main feeding stuffs (i.e., chew diet and water) during first week to 13-th week. Moreover, the rats in the 9 groups are fed with the main feeding stuffs as well as the extract feeding stuffs at 14-th week in order to accomplish one single oral administration experiments; therefore, the rats in the 9 groups are continuously fed with the main feeding stuffs as well as the extract feeding stuffs starting from 14-th week and continuing for 8 weeks, so as to carry out one chronic administration experiment. The designed experiment groups consist of:
# Continuously, please refer to following Table 12, which record the data of kidney function indexes, electrolytes indexes and creatine phosphokinase indexes of SHRs and WKYs in the experiment groups listed in Table 6. From Table 12, it can find that the kidney function indexes, the electrolytes indexes and the creatine phosphokinase indexes of SHRs in 1R, 5R, 1RM, and 5RM groups are normal comparing to the kidney function indexes, the electrolytes indexes and the creatine phosphokinase indexes of SHRs in C group. Moreover, the kidney function indexes, the electrolytes indexes and the creatine phosphokinase indexes of SHRs in W1R and W5R groups are normal comparing to the kidney function indexes, the electrolytes indexes and the creatine phosphokinase indexes of WKYs in WC group. Wherein the kidney function indexes include blood urea nitrogen (BUN), creatinine and uric acid, and the electrolytes indexes include sodium and potassium. […] It is well know that, when the kidney is at a kidney failure situation, the concentration of creatinine and uric acid in blood serum would increase. […] It is well know that, when the muscle is subject to damage, the concentration of CPK in blood serum would increase.
# [2] = test system: Spontaneous hypertensive rats (SHRs); assay: Blood pressure after one single oral administration in SHRs; conditions: M: SHR
# Text: (§2) Spontaneous hypertensive rats (SHRs) and Wistar-Kyoto strains of normotensive rats (WKYs) are chosen to be experiment animals, wherein the SHRs would spontaneously suffer from the hypertension when they grow to 5˜6 weeks old. Herein, 8-week old SHRs are used for carrying out the experiments, and these 8-week old SHRs and WKYs are pre-fed with chew diet and water for 5 weeks before starting the experiments. […] The rats in the 9 groups are fed with the main feeding stuffs (i.e., chew diet and water) during first week to 13-th week. Moreover, the rats in the 9 groups are fed with the main feeding stuffs as well as the extract feeding stuffs at 14-th week in order to accomplish one single oral administration experiments; therefore, the rats in the 9 groups are continuously fed with the main feeding stuffs as well as the extract feeding stuffs starting from 14-th week and continuing for 8 weeks, so as to carry out one chronic administration experiment.
# According to the body surface area (BSA) equation provided by Food and Drug Administration (FDA), the BSA of a standard person with the body height of 170 cm and the body weight of 65 kg can be calculated through the mathematical calculation formula of BSA (m^2)=0.003207{H^0.3×W^[0.07285−(0.0188×LOG (w))]}, wherein the BSA value obtained from aforesaid calculation formula for the standard person is 1.762 m^2. On the other hand, the BSA value for the SHRs can also be calculated through the mathematical calculation formula of BSA (m^2) (8.99 W^0.6899)/100, and the BSA value is 0.049 m^2. Moreover, because the experiments use “2.2 g” as a standard feeding dosage, the “1-fold” in Table 6 can be calculated to 176 mgkg^−1day^−1 according to BSA value of the SHRs. Herein, it needs to further explain that, M group is taken as a positive control group because amlodipine is a well-known blood pressure lowering substance. In the experiments, the lowest effective dosage (i.e., 1-fold dosage) for amlodipine is defined to 0.4 mgkg^−1day^−1.
# [3] = test system: Spontaneous hypertensive rats (SHRs); assay: Heart rate of SHRs; conditions: M: SHR, amlodipine 0.4 mgkg-1day-1
# Text: as §1
# Continuously, please refer to following Table 10, which record the heart rate data of SHRs and WKYs in the experiment groups listed in Table 6. From Table 10, it can find that the heart rate of SHRs in 1R, 5R, 1RM, and 5RM groups are normal comparing to the heart rate of SHRs in C group. Moreover, the heart rate of SHRs in W1R and W5R groups are normal comparing to the heart rate of WKYs in WC group.
# [4] = test system: Spontaneous hypertensive rats (SHRs); assay: Blood lipids of SHRs; conditions: M: SHR, amlodipine 0.4 mgkg-1day-1
# Text: as §1, with “experiment.” for “experiment. The designed experiment groups consist of:”
# [5] = test system: Spontaneous hypertensive rats (SHRs); assay: Liver function indexes of SHRs; conditions: M: SHR, amlodipine 0.4 mgkg-1day-1
# Text: as §1
# With reference to following Table 11, which record the liver function indexes data of SHRs and WKYs in the experiment groups listed in Table 6. […] Wherein the liver function indexes data include: aspartate aminotransferase (AST), alanine aminotransferase (ALT), alkaline phosphatase, albumin, globulin, γ-Glutamyltransferase (γ-GT), total protein, and A/G ratio.
# [6] = test system: Spontaneous hypertensive rats (SHRs); assay: Blood pressure in 8-week chronic administration experiment in SHRs; conditions: M: SHR
# Text: as §2
# Moreover, because the experiments use “2.2 g” as a standard feeding dosage, the “1-fold” in Table 6 can be calculated to 176 mgkg^−1day^−1 according to BSA value of the SHRs. Herein, it needs to further explain that, M group is taken as a positive control group because amlodipine is a well-known blood pressure lowering substance. In the experiments, the lowest effective dosage (i.e., 1-fold dosage) for amlodipine is defined to 0.4 mgkg^−1day^−1.
# [7] = amlodipine 0.4 mgkg-1day-1, 0 hr
# [8] = amlodipine 0.4 mgkg-1day-1, 4 hr
# [9] = amlodipine 0.4 mgkg-1day-1, 8 hr
# [10] = amlodipine 0.4 mgkg-1day-1, 24 hr
# [11] = amlodipine 0.4 mgkg-1day-1, 0 week
# [12] = amlodipine 0.4 mgkg-1day-1, 2 week
# [13] = amlodipine 0.4 mgkg-1day-1, 4 week
# [14] = amlodipine 0.4 mgkg-1day-1, 6 week
# [15] = amlodipine 0.4 mgkg-1day-1, 8 week
structure (smiles),measurement,setting,value
CCOC(=O)C1=C(COCCN)NC(C)=C(C(=O)OC)C1c1ccccc1Cl (centres unmarked) [amlodipine],BUN,[1],23.7 ± 0.8 mg/dL
same,Creatinine,[1],0.48 ± 0.1 mg/dL
same,Creatinine phosphokinase,[1],287.0 ± 12.2 U/L
same,Potassium,[1],8.8 ± 0.4 meq/L
same,Sodium,[1],152.4 ± 0.9 meq/L
same,Uric acid,[1],5.8 ± 0.6 mg/dL
same,DBP,[2]; [7],143 ± 2.9 mmHg
same,SBP,[2]; [7],180 ± 3.6 mmHg
same,DBP,[2]; [8],143 ± 3.8 mmHg
same,SBP,[2]; [8],178 ± 5.4 mmHg
same,DBP,[2]; [9],134 ± 4.9 mmHg
same,SBP,[2]; [9],171 ± 3.1 mmHg
same,DBP,[2]; [10],137 ± 4.2 mmHg
same,SBP,[2]; [10],175 ± 7.6 mmHg
same,Heart rate,[3]; 0 hr,402 ± 6.9 bpm
same,Heart rate,[3]; 2 week,402 ± 6.7 bpm
same,Heart rate,[3]; 4 week,404 ± 4.8 bpm
same,Heart rate,[3]; 6 week,403 ± 6.1 bpm
same,Heart rate,[3]; 8 week,402 ± 3.0 bpm
same,Heart rate,[3]; 4 hr,401 ± 6.5 bpm
same,Heart rate,[3]; 8 hr,400 ± 4.8 bpm
same,Heart rate,[3]; 24 hr,402 ± 4.9 bpm
same,Cholesterol,[4],79.8 ± 3.6 mg/dL
same,Cholesterol/HDL-C,[4],1.3 ± 0.1
same,HDL-C,[4],60.3 ± 1.9 mg/dL
same,LDL-C,[4],10.0 ± 0.7 mg/dL
same,Triacylglycerol,[4],69.3 ± 6.8 mg/dL
same,A/G ratio,[5],2.1 ± 0.4
same,ALT,[5],85.7 ± 6.1 U/L
same,AST,[5],125.8 ± 4.6 U/L
same,Albumin,[5],5.4 ± 0.2 g/dL
same,Alkaline phosphatase,[5],143.3 ± 7.6 IU/L
same,Globulin,[5],2.6 ± 0.1 g/dL
same,Total protein,[5],8.2 ± 0.1 g/dL
same,DBP,[6]; [11],143 ± 2.9 mmHg
same,SBP,[6]; [11],180 ± 3.6 mmHg
same,DBP,[6]; [12],145 ± 3.6 mmHg
same,SBP,[6]; [12],178 ± 5.4 mmHg
same,DBP,[6]; [13],140 ± 3.8 mmHg
same,SBP,[6]; [13],171 ± 3.1 mmHg
same,DBP,[6]; [14],139 ± 1.9 mmHg
same,SBP,[6]; [14],175 ± 7.6 mmHg
same,DBP,[6]; [15],135 ± 2.7 mmHg
same,SBP,[6]; [15],175 ± 7.6 mmHg
